In assay [1] the test system is Trypanosoma brucei brucei. As to the kind of experiment: Antitrypanosomal activity against Trypanosoma brucei brucei. The class given is functional, organism-based.
Assay [2] deals with Trypanosoma brucei brucei. Nature of the assay: Antitrypanosomal activity against Trypanosoma brucei brucei at 80 uM. The class given is functional.

pIC50: −log10 of the molar value.

As for `c1ccc2c(c1)Nc1cc3cccnc3c3nccc-2c13`, the pIC50 in assay [1] is 7.11.

The compound `c1ccc2c(c1)nc1c3nc4ccccc4c4ccnc(c5nccc2c51)c43` [EILATIN] gave a negative logarithm of the IC50 (pIC50) in assay [1] of 5.88.

For `COC1=C(Br)[C@H](O)[C@@]2(C=C1Br)CC(C(=O)NCCCn1cnc(CCNC(=O)C3=NO[C@]4(C=C(Br)C(OC)=C(Br)[C@@H]4O)C3)c1)=NO2` [PSEUDOCERATINAZOLE A], in assay [2], the inhibition at 80 µM was determined as 80%.

For the compound `O=C1c2cccnc2-c2nccc3c2c1nc1ccccc13` [ASCIDIDEMIN], in assay [1], the pIC50 was 7.49.

Usually pIC50 stands for the negative decadic logarithm of the IC50, by convention in mol/L. The inhibition is the relative decrease from the control value, in per cent. A high value points to a strong effect.

The values are drawn from ChEMBL document CHEMBL1949604, “Drug-like properties: guiding principles for the design of natural product libraries” (J Nat Prod, 2012).
